Read-outs that look alike come from different tables or passages of the source.
Tests used:
[1] = test system: isolated left atria of male guineapigs; experiment: Negatively inotropic effect on isolated left guineapig atria (decrease in contraction amplitude); set-up: species or system guineapig (Pirbright white); settings: for R.A. = relative activity (force of contraction): Procainamide = 1.00; for Force of contraction EC 25%: concentration which produces a 25% decrease in the force of contraction: Tyrode's solution pH 7.4, 32° C.
Protocol: Atria suspended in an organ bath (volume 125 ml) containing carbogen-saturated Tyrode's solution (pH 7.4, 32° C.) are prestressed with 1.0 g and are driven by square wave pulses of 1 Hz base rhythm and double stimulation threshold values (rheo base: 0.2-1.4 V, chronaxia: 0.3-0.5 msec).
Further, the concentration which produces a 25% decrease in amplitude, ie. the EC 25%, is determined, as a measure of the negatively inotropic effect, from the linear relationship between log concentration (mg/l) and relative change in contraction amplitude (Δ%).

[2] = test system: isolated left atria of male guineapigs; experiment: Anti-arrhythmic activity on isolated left guineapig atria (maximum driving rate); set-up: species or system guineapig (Pirbright white); settings: for R.A. = relative activity (maximum sequence frequency): Procainamide = 1.00; for Maximum sequence frequency EC 50%: concentration which produces a 50% decrease in the maximum sequence frequency: Tyrode's solution pH 7.4, 32° C.
Protocol: As a criterion of the anti-arrhythmic action, the frequency (in Hz) at which the atria are just still able to follow the sequence of pulses (the maximum driving rate) is determined by automatic continuous increase in frequency. The concentration which produces a 50% decrease in maximum driving rate, ie. the ED 50%, is calculated from the linear relationship between log concentration (mg/l) and relative decrease in maximum driving rate (Δ%).

[3] = test system: aconitine-induced arrhythmia; experiment: in vivo; type: in vivo, rat (Sprague Dawley)
Protocol: (§1) To determine the anti-arrhythmic activity, the substance is administered orally to rats (Sprague Dawley, weight 200-250 g) 45 minutes before the start of narcosis. The animals are narcotized with 100 mg/kg of sodium thiobutabarbital administered intraperitone-ally. The arrhythmogenic substance is aconitine which is infused intravenously, at a dosage rate of 0.005 mg/kg×min, 60 minutes after administration of the novel substance. In the case of untreated animals (N=52), arrhythmias are noted in the electrocardiogram after 2.74±0.07 min, and the occurrence of these can be delayed by anti-arrhythmic agents, to an extent which depends on the dose.
(§2) The dose which prolongs the infusion duration by 50%, ie. the ED 50%, is determined from the linear relationship between log dose (mg/kg) of test substance and relative prolongation of aconitine infusion duration (Δ%).
(§3) For further characterization of the substance, the anti-arrhythmic effect of the maximum tolerated dose is determined from the decimal-geometric dosage progression (factor ^3 .cuberoot.10) used in the experiments. In addition, the dose at which toxic symptoms (changes in the initial ECG, cyanosis or cramp) occur is determined. Moreover, the anti-arrhythmic activity of the compounds according to the invention is determined on isolated left atria of male guineapigs (Pirbright white, weight 350-450 g).

in vivo = type: in vivo, rat (Sprague Dawley); settings: rat, in vivo; rats, oral; decimal-geometric dosage progression; read-out: Maximum effect: Dose (maximum tolerated dose)
Protocol: as §1, §2, §3

[4] = Toxicity in rats, oral administration: dose at which toxic symptoms (changes in the initial ECG, cyanosis or cramp) occur; type: in vivo, rat (Sprague Dawley); settings: for TD50 / selectivity ratio: rat, in vivo; for selectivity ratio: read-out: Q (therapeutic range): quotient of toxic dose and anti-arrhythmically effective dose (ED 50%)
Protocol: as §1, §3

[5] = isolated guineapig atria, compared with procainamide
[6] = rats, oral, maximum tolerated dose
[7] = rats, oral, greater than procainamide

Row | Compound | R.A. = relative activity (force of contraction) [1] | Force of contraction EC 25%: concentration which produces a 25% decrease in the force of contraction [1] | R.A. = relative activity (maximum sequence frequency) ([2]; isolated guineapig atria) | anti-arrhythmic effect on isolated guineapig atria, relative to procainamide ([2]; as great as that of procainamide) | Q: quotient of EC 25% force of contraction decrease : EC 50% maximum driving rate ([2]; isolated guineapig atria) | Maximum sequence frequency EC 50%: concentration which produces a 50% decrease in the maximum sequence frequency ([2]; isolated guineapig atria) | difference between anti-arrhythmic and negatively inotropic effect (quotient EC 25% : EC 50%), in words [2, 5] | therapeutic range as far as effects on guineapig atria are concerned, in words [2, 5] | R.A. = relative activity (effective dose) ([3]; Procainamide = 1.00, rats, oral) | R.M.E. = relative maximum effect ([3]; Procainamide = 1.00, rats, oral, maximum tolerated dose) | ED50 ([3]; Rattus norvegicus, po, read-out: ED 50%: dose which prolongs the duration of aconitine infusion by 50%) | Maximum effect: prolongation of duration of aconitine infusion, Δ %, at the maximum tolerated dose [3, 6] | anti-arrhythmic effect on aconitine-induced arrhythmia, relative to procainamide [3, 7] | MTD (in vivo) | TD50 ([4]; rats, oral, changes in initial ECG, cyanosis or cramp, read-out: Toxicity: dose whose administration produces the first toxic symptoms) | selectivity ratio ([4]; rats, oral) | therapeutic range (toxic dose / ED 50%), relative to procainamide [4, 7] | TD50 ([4]; po)
1 | COC(=O)c1sccc1OCC(O)CN1CCC(O)(c2ccccc2)CC1 (stereo not shown) [Example 1, 3-[2-hydroxy-3-(4-phenyl-4-hydroxy-piperidino)-propoxy]-thiophene-2-carboxylic acid methyl ester] | 14.8 | 3.80 µg/mL | 68.7 | 69 times | 2.6 | 1.47 µg/mL | substantially greater than for procainamide | greater therapeutic range | 3.36 | 2.19 | 46.8 mg/kg | 296% | 3 to 4 times | 215 mg/kg | 464 mg/kg | 9.9 | 1.6 times | –
2 | CCN(CC)CCNC(=O)c1ccc(N)cc1 [Procainamide, procainamide, reference compound] | 1.00 | 56.4 µg/mL | 1.00 | – | 0.56 | 101 µg/mL | – | – | – | – | – | 135% | – | – | – | 6.4 | – | 1000 mg/kg
